Results published in patent US8937089B2, “Synergistic mixtures of anthranilamide invertebrate pest control agents” (priority 2004, dated 2015).
Like-named read-outs stand apart in the source and are kept apart here.

Key:
Assay in all cases: whole plant or invertebrate
Format in all cases: in vivo
[1] = system: silverleaf whitefly (Bemisia argentifolii Bellows and Perring); conditions: Bemisia argentifolii, in Gossypium hirsutum; for mortality at 100 ppm: rate 100 ppm; for mortality at 1000 ppm: rate 1000 ppm
From the text: For evaluating control of silverleaf whitefly (Bemisia argentifolii Bellows and Perring) through contact and/or systemic means, each test unit consisted of a small open container with a 12- to 14-day-old cotton plant inside. This was pre-infested by placing test units into cages infested with adult whiteflies so that oviposition on the cotton leaves could occur. The adults were removed from the plants with an air-blast nozzle, and the test units were capped. The test units were then stored 2 to 3 days before spraying.
(§1) Test compounds were formulated using a solution containing 10% acetone, 90% water and 300 ppm X-77® Spreader Lo-Foam Formula non-ionic surfactant containing alkylarylpolyoxyethylene, free fatty acids, glycols and 2-propanol (Loveland Industries, Inc.) to provide the desired concentration in ppm. Formulated test solutions were then applied in 1 mL volumes through a SUJ2 atomizer nozzle with 1/8 JJ custom body (Spraying Systems Co.) positioned 1.27 cm (0.5 inches) above the top of each test unit.
The results for all experimental compositions in this test were replicated three times. After spraying of the formulated test composition, each test unit was allowed to dry for 1 hour and the cap removed. The test units were held for 13 days in a growth chamber at 28° C. and 50-70% relative humidity.

[2] = system: western flower thrip (Frankliniella occidentalis Pergande); conditions: Frankliniella occidentalis; for mortality at 500 ppm: rate 500 ppm; for mortality at 1000 ppm: rate 1000 ppm; for mortality at 10 ppm: rate 10 ppm
Description: as §1
For evaluating control of the western flower thrip (Frankliniella occidentalis Pergande) through contact and/or systemic means, each test unit consisted of a small open container with a 5- to 7-day-old bean (var. Soleil) plant inside.
Test solutions were formulated and sprayed with 3 replications as described for Test A. After spraying, the test units were allowed to dry for 1 hour, 22 to 27 adult thrips were added to each unit and then a black, screened cap was placed on top. The test units were held for 7 days at 25° C. and 45-55% relative humidity.

[3] = system: potato leafhopper (Empoasca fabae Harris); conditions: Empoasca fabae; for mortality at 10 ppm: rate 10 ppm; for mortality at 100 ppm: rate 100 ppm; for mortality at 1000 ppm: rate 1000 ppm
Description: as §1
[…] White sand was added to the top of the soil, and one of the primary leaves was excised prior to application. Test compounds were formulated and sprayed with 3 replications as described for Test A. After spraying, the test units were allowed to dry for 1 hour before they were infested with 5 potato leafhoppers (18- to 21-day-old adults). A black, screened cap was placed on the top of each container. The test units were held for 6 days in a growth chamber at 19-21° C. and 50-70% relative humidity.

[4] = system: corn planthopper (Peregrines maidis); conditions: for mortality at 1000 ppm: rate 1000 ppm
Description: as §1
For evaluating control of corn planthopper (Peregrines maidis) through contact and/or systemic means, each test unit consisted of a small open cylindrical container with a 3- to 4-day-old corn (maize) plant (spike) inside. White sand was added to the top of the soil prior to application. Test compounds were formulated and sprayed with 3 replications as described for Test A. After spraying, the test units were allowed to dry for 1 hour before they were post-infested with 10 to 20 corn planthoppers (18- to 20-day-old nymphs) by sprinkling them onto the sand with a salt shaker. A black, screened cap was placed on the top of each container. The test units were held for 6 days in a growth chamber at 19-21° C. and 50-70% relative humidity.

[5] = system: cotton melon aphid (Aphis gossypii Glover); conditions: Aphis gossypii; for mortality at 10 ppm: rate 10 ppm; for mortality at 100 ppm: rate 100 ppm; for mortality at 1000 ppm: rate 1000 ppm
Description: as §1
(§2) For evaluating control of cotton melon aphid (Aphis gossypii Glover) through contact and/or systemic means, each test unit consisted of a small open container with a 6- to 7-day-old cotton plant inside. This was pre-infested by placing on a leaf of the test plant 30 to 40 aphids on a piece of leaf excised from a culture plant (cut-leaf method). The larvae moved onto the test plant as the leaf piece desiccated. After pre-infestation, the soil of the test unit was covered with a layer of sand.
(§3) Test compounds were formulated and sprayed as described for Test A. The applications were replicated three times. After spraying of the formulated test compounds, each test unit was allowed to dry for 1 hour and then a black, screened cap was placed on top. The test units were held for 6 days in a growth chamber at 19-21° C. and 50-70% relative humidity.

[6] = system: green peach aphid (Myzus persicae Sulzer); conditions: Myzus persicae, in Raphanus sativus; for mortality at 10 ppm: rate 10 ppm; for mortality at 100 ppm: rate 100 ppm; for mortality at 1000 ppm: rate 1000 ppm
Description: as §1
as §2, with “green peach” for “cotton melon”, “(Myzus persicae Sulzer)” for “(Aphis gossypii Glover)”, “12-” for “6-”, “15-day-old radish” for “7-day-old cotton”
as §3, with “described in” for “described for”, “Test A,” for “Test A. The applications were”, “test compound,” for “test compounds,”

[7] = Table 2B, rate 10 ppm, read-out: % mortality (obs)
[8] = Table 2B, read-out: % mortality (obs)
[9] = 168 h, single compound, spray, 7 days, read-out: % mortality (obs)
[10] = alone, read-out: % mortality (obs)
[11] = Corn Plant Hopper, read-out: % mortality (obs)
[12] = Green Peach Aphid, read-out: % mortality (obs)
[13] = rate 1 ppm, alone, read-out: % mortality (obs)

Nc1nc(N)nc(NC2CC2)n1 [Cyromazine]
mortality at 10 ppm [1, 7]: 1% | mortality at 100 ppm [1, 8]: 2% | mortality at 1000 ppm [1, 8]: 2% | mortality at 200 ppm ([2]; 168 h, rate 200 ppm, single compound, spray, 7 days, read-out: % mortality (obs)): 70% | mortality at 500 ppm [2, 9]: 80% | mortality at 1000 ppm [2, 9]: 70% | mortality at 10 ppm [3, 10]: 7% | mortality at 100 ppm [3, 10]: 0% | mortality at 1000 ppm [3, 10]: 0% | mortality at 200 ppm ([4]; Corn Plant Hopper, rate 200 ppm, read-out: % mortality (obs)): 4% | mortality at 500 ppm ([4]; Corn Plant Hopper, rate 500 ppm, read-out: % mortality (obs)): 8% | mortality at 1000 ppm [4, 11]: 8% | mortality at 10 ppm ([5]; read-out: % mortality (obs)): 23% | mortality at 100 ppm ([5]; read-out: % mortality (obs)): 34% | mortality at 1000 ppm ([5]; read-out: % mortality (obs)): 28% | mortality at 10 ppm [6, 12]: 24% | mortality at 100 ppm [6, 12]: 33% | mortality at 1000 ppm [6, 12]: 65%

CC1(C)[C@H](C(=O)O[C@H](C#N)c2cccc(Oc3ccccc3)c2)[C@@H]1C=C(Br)Br [Deltamethrin]
mortality at 30 ppm ([1]; Table 2B, rate 30 ppm, read-out: % mortality (obs)): 2% | mortality at 40 ppm ([1]; Table 2B, rate 40 ppm, read-out: % mortality (obs)): 0% | mortality at 50 ppm ([1]; Table 2B, rate 50 ppm, read-out: % mortality (obs)): 1% | mortality at 10 ppm [2, 9]: 70% | mortality at 1000 ppm [2, 9]: 70% | mortality at 3000 ppm ([2]; 168 h, rate 3000 ppm, single compound, spray, 7 days, read-out: % mortality (obs)): 50% | mortality at 0.1 ppm ([3]; rate 0.1 ppm, alone, read-out: % mortality (obs)): 7% | mortality at 0.2 ppm ([3]; rate 0.2 ppm, alone, read-out: % mortality (obs)): 7% | mortality at 1 ppm [3, 13]: 60% | mortality at 0.1 ppm ([4]; Corn Plant Hopper, rate 0.1 ppm, read-out: % mortality (obs)): 11% | mortality at 0.2 ppm ([4]; Corn Plant Hopper, rate 0.2 ppm, read-out: % mortality (obs)): 14% | mortality at 0.3 ppm ([4]; Corn Plant Hopper, rate 0.3 ppm, read-out: % mortality (obs)): 7% | mortality at 0.1 ppm ([5]; rate 0.1 ppm, read-out: % mortality (obs)): 52% | mortality at 0.2 ppm ([5]; rate 0.2 ppm, read-out: % mortality (obs)): 39% | mortality at 0.3 ppm ([5]; rate 0.3 ppm, read-out: % mortality (obs)): 88% | mortality at 250 ppm ([6]; Green Peach Aphid, rate 250 ppm, read-out: % mortality (obs)): 9% | mortality at 300 ppm ([6]; Green Peach Aphid, rate 300 ppm, read-out: % mortality (obs)): 3% | mortality at 1000 ppm [6, 12]: 9%

CCOC(=O)NCCOc1ccc(Oc2ccccc2)cc1 [Fenoxycarb]
mortality at 2 ppm ([1]; Table 2B, rate 2 ppm, read-out: % mortality (obs)): 0% | mortality at 10 ppm [1, 7]: 0% | mortality at 20 ppm ([1]; Table 2B, rate 20 ppm, read-out: % mortality (obs)): 21% | mortality at 10 ppm [2, 9]: 40% | mortality at 100 ppm ([2]; 168 h, rate 100 ppm, single compound, spray, 7 days, read-out: % mortality (obs)): 70% | mortality at 1000 ppm [2, 9]: 60% | mortality at 10 ppm [3, 10]: 0% | mortality at 100 ppm [3, 10]: 20% | mortality at 1000 ppm [3, 10]: 0% | mortality at 10 ppm ([4]; Corn Plant Hopper, rate 10 ppm, read-out: % mortality (obs)): 8% | mortality at 100 ppm ([4]; Corn Plant Hopper, rate 100 ppm, read-out: % mortality (obs)): 2% | mortality at 1000 ppm [4, 11]: 5% | mortality at 10 ppm ([5]; read-out: % mortality (obs)): 16% | mortality at 100 ppm ([5]; read-out: % mortality (obs)): 23% | mortality at 1000 ppm ([5]; read-out: % mortality (obs)): 34% | mortality at 10 ppm [6, 12]: 17% | mortality at 100 ppm [6, 12]: 16% | mortality at 1000 ppm [6, 12]: 18%

CC1(C)CNC(=NN=C(/C=C/c2ccc(C(F)(F)F)cc2)/C=C/c2ccc(C(F)(F)F)cc2)NC1 [Hydramethylnon]
mortality at 10 ppm [1, 7]: 2% | mortality at 100 ppm [1, 8]: 1% | mortality at 1000 ppm [1, 8]: 0% | mortality at 10 ppm [2, 9]: 60% | mortality at 500 ppm [2, 9]: 50% | mortality at 1000 ppm [2, 9]: 40% | mortality at 0.01 ppm ([3]; rate 0.01 ppm, alone, read-out: % mortality (obs)): 0% | mortality at 1 ppm [3, 13]: 27% | mortality at 2 ppm ([3]; rate 2 ppm, alone, read-out: % mortality (obs)): 60% | mortality at 0.01 ppm ([4]; Corn Plant Hopper, rate 0.01 ppm, read-out: % mortality (obs)): 7% | mortality at 1 ppm ([4]; Corn Plant Hopper, rate 1 ppm, read-out: % mortality (obs)): 1% | mortality at 2 ppm ([4]; Corn Plant Hopper, rate 2 ppm, read-out: % mortality (obs)): 6% | mortality at 500 ppm ([5]; rate 500 ppm, read-out: % mortality (obs)): 21% | mortality at 1000 ppm ([5]; read-out: % mortality (obs)): 40% | mortality at 1500 ppm ([5]; rate 1500 ppm, read-out: % mortality (obs)): 39% | mortality at 500 ppm ([6]; Green Peach Aphid, rate 500 ppm, read-out: % mortality (obs)): 18% | mortality at 1000 ppm [6, 12]: 8% | mortality at 1500 ppm ([6]; Green Peach Aphid, rate 1500 ppm, read-out: % mortality (obs)): 7%

O=[N+]([O-])NC1=NCCN1Cc1ccc(Cl)nc1 [Imidacloprid]
mortality at 10 ppm ([1]; Table 2A, Imidacloprid 10 ppm, read-out: % Mortality (observed)): 1% | mortality at 22 ppm ([1]; Table 2A, Imidacloprid 22 ppm, read-out: % Mortality (observed)): 2% | mortality at 48 ppm ([1]; Table 2A, Imidacloprid 48 ppm, read-out: % Mortality (observed)): 25% | mortality at 11 ppm ([2]; Table 3A, Imidacloprid 11 ppm, read-out: % Mortality (observed)): 20% | mortality at 77 ppm ([2]; Table 3A, Imidacloprid 77 ppm, read-out: % Mortality (observed)): 37% | mortality at 561 ppm ([2]; Table 3A, Imidacloprid 561 ppm, read-out: % Mortality (observed)): 90% | mortality at 0.2 ppm ([3]; Table 4A, Imidacloprid 0.2 ppm, read-out: % Mortality (observed)): 20% | mortality at 0.4 ppm ([3]; Table 4A, Imidacloprid 0.4 ppm, read-out: % Mortality (observed)): 0% | mortality at 1 ppm ([3]; Table 4A, Imidacloprid 1 ppm, read-out: % Mortality (observed)): 20% | mortality at 0.1 ppm ([4]; Table 5A, Imidacloprid 0.1 ppm, read-out: % Mortality (observed)): 27% | mortality at 0.3 ppm ([4]; Table 5A, Imidacloprid 0.3 ppm, read-out: % Mortality (observed)): 37% | mortality at 1 ppm ([4]; Table 5A, Imidacloprid 1 ppm, read-out: % Mortality (observed)): 60% | mortality at 0.05 ppm ([5]; Table 6A, Imidacloprid 0.05 ppm, read-out: % Mortality (observed)): 12% | mortality at 0.3 ppm ([5]; Table 6A, Imidacloprid 0.3 ppm, read-out: % Mortality (observed)): 10% | mortality at 2.1 ppm ([5]; Table 6A, Imidacloprid 2.1 ppm, read-out: % Mortality (observed)): 40% | mortality at 0.08 ppm ([6]; Table 7A, Imidacloprid 0.08 ppm, read-out: % Mortality (observed)): 4% | mortality at 0.15 ppm ([6]; Table 7A, Imidacloprid 0.15 ppm, read-out: % Mortality (observed)): 12% | mortality at 0.26 ppm ([6]; Table 7A, Imidacloprid 0.26 ppm, read-out: % Mortality (observed)): 50%
